The record followed here is ChEMBL document CHEMBL4251673, “Structurally Diverse Diterpenoids from Sandwithia guyanensis” (J Nat Prod, 2018).

One series deals with Chikungunya virus. Put plainly: Antiviral activity against Chikungunya virus Indian Ocean 889 infected in African green monkey Vero cells assessed as inhibition of virus-induced cytopathic effect after 7 days by MTS method. The following applies: Indian Ocean 889, Vero, 168 h. It is filed as functional, organism-based. A general note: Damage to the host cells serves as the signal in cytopathic effect assays.

The nature of series [1]: Selectivity index, ratio of CC50 for African green monkey Vero cells to EC50 for Chikungunya virus Indian Ocean 889 infected in African green monkey Vero cells. It is filed as toxicity. The note with it: read-out: Ratio CC50/EC50.

Each structure is given as a SMILES string.

Consider `C/C1=C\[C@@H]2[C@H](CC[C@]3(C)O[C@H]3C3=C(C1=O)[C@@H](O)[C@H](C)C3=O)C2(C)C`, for which the EC50 (as a rule, the concentration at which the effect is half-maximal) in the series with Chikungunya virus is 14 µM. The selectivity ratio in series [1] was determined as 1.92.
